Columns and labels:
[1] = test system: Avr/Cf9 rapidly elicited protein 75 (gene 5, Solyc11g010250.1); test: qRT-PCR expression of gene 5 in tomato leaves; assay type: in vivo, Tomato ecotype corbarino; parameters: key: relative expression normalized to a-tubulin housekeeping gene
Method: (§1) Tomato ecotype “corbarino” reported to be susceptible to TSWV infection was used in the experiment. Plants were grown in pots in a climatic chamber with a photoperiod of 16/8 hour at 25° C.
(§2) The viral strain (TSWV PV PV-0393) was utilized in the experiment. The virus was mechanically inoculated and propagated on tomato “corbarino”. The inoculum was prepared in an ice-cooled mortar grounding 1 gr of infected tomato tissue in 10 ml of Na-phosphate buffer 0.01M. The fresh prepared inoculum was stored in ice before use. Tomato plants at BBCH16 were dusted with Carborundum 600 mesh and selected leaves were rubbed with some droplets of inoculum. After 5 min. plants were sprayed with sterile water to remove the excess of inoculum and preserve the cell turgor.
(§3) Four treatments were compared: i) Mock inoculated; ii) TSWV; iii) 0.25% Laminarin; iv) 0.25% Laminarin+TSWV. In the last treatment the virus was inoculated 24 hrs after the laminarin application.
(§4) Total RNA was extracted from systemic infected tomato leaves by using the Quick-RNA Plant Kit (Zymo Research) following the manufacturer instructions. The extractions were carried out using three plants after 12 h, 24 h, 48 h, 72 h, 7 days after inoculation. Leaves were instantly frozen in liquid nitrogen after cutting to avoid any deterioration of the sample as well as any defense reaction. The RNA concentration was quantified by measuring the absorbance at 260 nm using a Nanodrop 2000 (Thermofisher). The purity of all of the RNA samples was assessed at an absorbance ratio of OD260/280 and OD260/230, while its structural integrity was checked by agarose gel electrophoresis. Only high-quality RNA with OD 260/280 and OD 260/230>2 was used for subsequent steps. Single-stranded cDNA was synthesized from 1 μg of total RNA using an iScript™ Select cDNA Synthesis Kit and random hexamers as primers (Bio-Rad, Milan, Italy), according to the manufacturer's instructions. Three biological replicates were created from the 3 leaves collected to test 15 genes. Alpha tubulin was used as reference gene.
(§5) qPCR reactions were performed with BioRad (Applied Biosystems, Foster City, CA, USA) using SYBR R Green. Each reaction was performed in 20 μl containing 10 μl of 2× Power SYBR Green PCR Master Mix (Life Technologies), 0.2-0.3 μM primers and cDNA samples diluted 1:20. Each qPCR reaction was performed in triplicate. Reactions were run using the cycling parameter described previously (Reid et al., 2006) and the qPCR data were analyzed by the Ct method (Pfaffl, 2001). In order to analyze the qPCR data, a-tubulin gene was used as housekeeping to determine the relative expression level of the other genes analyzed in this work. For the determination of qPCR efficiency of each primer pairs, a standard curve was performed using the following cDNA dilutions: 1:4, 1:16, 1:64; 1:256 and 1:1024. Every measurement was made in triplicate. The corresponding qPCR efficiencies (E) were calculated for every primer pair with the software 7300 System SDS software (Applied Biosystems, Foster City, CA, USA) according to the equation E=(10−1/slope−1)×100 (Rutledge and Stewart, 2008).
(§6) The significance of the differences between the gene expressions levels were compared by one-way ANOVA (p=0.01) and the means were separated by Tukey post-hoc test using SPSS ver.26 ([…]).

[2] = test system: Pti6 (gene 15, U89257.1); test: qRT-PCR expression of gene 15 in tomato leaves; assay type: in vivo, Tomato ecotype corbarino; parameters: key: relative expression normalized to a-tubulin housekeeping gene
Method: as §1, §2, §3, §4, §5, §6

[3] = Gene_15, 12 hr, treatment Laminarin
[4] = Gene_15, 12 hr, treatment Laminarin + virus
[5] = Gene_15, 24 hr, treatment Laminarin
[6] = Gene_15, 24 hr, treatment Laminarin + virus
[7] = Gene_15, 48 hr, treatment Laminarin
[8] = Gene_15, 48 hr, treatment Laminarin + virus
[9] = Gene_15, 72 hr, treatment Laminarin
[10] = Gene_15, 72 hr, treatment Laminarin + virus

laminarin was tested, and the RQ1 ([1]; 12 hr, Laminarin + virus) was 0.8046, the RQ2 ([1]; 12 hr, Laminarin + virus) was 10.612 and the RQ3 ([1]; 12 hr, Laminarin + virus) was 11.537. For the same substance, the RQ mean ([1]; 12 hr, Laminarin + virus) was 10.065, the RQ1 ([1]; 12 hr, Laminarin alone) was 0.7901 and the RQ2 ([1]; 12 hr, Laminarin alone) was 11.285. The RQ3 ([1]; 12 hr, Laminarin alone) was 0.9408, the RQ mean ([1]; 12 hr, Laminarin alone) was 0.9531 and the RQ1 ([1]; 24 hr, Laminarin + virus) was 10.601. For the same substance, the RQ2 ([1]; 24 hr, Laminarin + virus) was 12.023, the RQ3 ([1]; 24 hr, Laminarin + virus) was 0.9700 and the RQ mean ([1]; 24 hr, Laminarin + virus) was 10.775. The RQ1 ([1]; 24 hr, Laminarin alone) was 11.135, the RQ2 ([1]; 24 hr, Laminarin alone) was 12.189 and the RQ3 ([1]; 24 hr, Laminarin alone) was 0.9994. For the same substance, the RQ mean ([1]; 24 hr, Laminarin alone) was 11.106, the RQ1 ([1]; 48 hr, Laminarin + virus) was 0.8610 and the RQ2 ([1]; 48 hr, Laminarin + virus) was 13.586. For the same substance, the RQ3 ([1]; 48 hr, Laminarin + virus) was 10.405, the RQ mean ([1]; 48 hr, Laminarin + virus) was 10.867 and the RQ1 ([1]; 48 hr, Laminarin alone) was 0.9204. It also gave an RQ2 ([1]; 48 hr, Laminarin alone) of 12.321, an RQ3 ([1]; 48 hr, Laminarin alone) of 10.531 and an RQ mean ([1]; 48 hr, Laminarin alone) of 10.685. For the same substance, the RQ1 ([1]; 72 hr, Laminarin + virus) was 17.401, the RQ2 ([1]; 72 hr, Laminarin + virus) was 30.624 and the RQ3 ([1]; 72 hr, Laminarin + virus) was 25.095. It also gave an RQ mean ([1]; 72 hr, Laminarin + virus) of 24.373, an RQ1 ([1]; 72 hr, Laminarin alone) of 22.196 and an RQ2 ([1]; 72 hr, Laminarin alone) of 23.867. It also gave an RQ3 ([1]; 72 hr, Laminarin alone) of 23.473, an RQ mean ([1]; 72 hr, Laminarin alone) of 23.179 and an RQ1 [2, 3] of 10.060. The RQ2 [2, 3] was 10.254, the RQ3 [2, 3] was 12.879 and the RQ mean [2, 3] was 11.065. It also gave an RQ1 [2, 4] of 12.002, an RQ2 [2, 4] of 16.131 and an RQ3 [2, 4] of 13.764. It also gave an RQ mean [2, 4] of 13.966, an RQ1 [2, 5] of 13.129 and an RQ2 [2, 5] of 21.363. It also gave an RQ3 [2, 5] of 13.388, an RQ mean [2, 5] of 15.960 and an RQ1 [2, 6] of 15.392. The RQ2 [2, 6] was 14.812, the RQ3 [2, 6] was 12.195 and the RQ mean [2, 6] was 14.133. It also gave an RQ1 [2, 7] of 32.421, an RQ2 [2, 7] of 0.8602 and an RQ3 [2, 7] of 19.066. It also gave an RQ mean [2, 7] of 20.030, an RQ1 [2, 8] of 16.304 and an RQ2 [2, 8] of 17.934. For the same substance, the RQ3 [2, 8] was 18.959, the RQ mean [2, 8] was 17.732 and the RQ1 [2, 9] was 49.281. For the same substance, the RQ2 [2, 9] was 36.255, the RQ3 [2, 9] was 43.025 and the RQ mean [2, 9] was 42.853. It also gave an RQ1 [2, 10] of 22.660, an RQ2 [2, 10] of 30.703 and an RQ3 [2, 10] of 44.821. The RQ mean [2, 10] was 32.728.
